Legend:
[1] = test system: mouse; conditions: Chronic toxicity, b6c3f1, Oral, Feed, dose end: 1 year, group: systemic
[2] = test system: mouse; conditions: Carcinogenicity, b6c3f1, Oral, Feed, dose end: 2 year, group: systemic
[3] = test system: rat; conditions: Prenatal developmental toxicity study, sprague dawley, Oral, Gavage/Intubation, dose end: 17 GD
[4] = test system: rat; conditions: Multigenerational reproductive toxicity study, fischer, Oral, Feed, dose end: 2 generation
[5] = test system: rat; conditions: Combined chronic toxicity/carcinogenicity, fischer, Oral, Feed, dose end: 2 year, group: systemic
[6] = test system: mouse; conditions: Subchronic oral toxicity in rodents, b6c3f1, Feed, dose end: 90 day, group: systemic
[7] = test system: rabbit; conditions: Prenatal developmental toxicity study, dutch, Oral, Gavage/Intubation, dose end: 18 GD, group: maternal
[8] = test system: mouse; conditions: Carcinogenicity, b6c3f1, Oral, Feed, dose end: 24 month, group: systemic
[9] = test system: mouse; conditions: Subchronic oral toxicity in rodents, b6c3f1, Feed, dose end: 90 day, group: systemic, systemic / clinical chemistry / glucose / glucose + systemic / in life observation / body weight / body weight gain + systemic / clinical …
[10] = test system: rat; conditions: Subchronic oral toxicity in rodents, fischer, Feed, dose end: 90 day, group: systemic
[11] = test system: dog; conditions: Chronic toxicity; beagle; Oral; Capsule; dose end: 52 week; group: systemic; systemic / clinical chemistry / thyroxine (t4) / thyroxine (t4), total
[12] = test system: rat; conditions: Combined chronic toxicity/carcinogenicity, other, Oral, Feed, dose end: 24 month, group: systemic
[13] = test system: rat; conditions: Subchronic oral toxicity in rodents, sprague dawley, Feed, dose end: 90 day, group: systemic, systemic / in life observation / body weight / body weight + systemic / in life observation / body weight / body weight gain + systemic / in…
[14] = test system: dog; conditions: Subchronic oral toxicity in nonrodent, beagle, Feed, dose end: 90 day, group: systemic, systemic / hematology / erythrocyte (rbc) count differential / erythrocyte (rbc) + systemic / hematology / hematocrit (hct) / hematocrit (…
[15] = test system: dog; conditions: Chronic toxicity; beagle; Oral; Feed; dose end: 52 week; group: systemic; systemic / organ weight / liver / relative to body weight + systemic / pathology microscopic / liver / vacuolization + systemic / pathology …
[16] = test system: mouse; conditions: Carcinogenicity; cd1; Oral; Feed; dose end: 80 week; group: systemic; systemic / pathology microscopic / liver / adenoma + systemic / in life observation / body weight / body weight gain + systemic / in life …
[17] = systemic / pathology microscopic / kidney / pyelonephritis + systemic / pathology microscopic / urinary bladder / inflammation + systemic / …
[18] = systemic / in life observation / body weight / body weight gain
[19] = systemic / organ weight / uterus / absolute
[20] = group: developmental, developmental / developmental malformation / bone / incomplete ossification + systemic / in life observation / body weight / fetal weight
[21] = group: developmental, developmental / developmental malformation / bone / incomplete ossification + systemic / in life observation / body weight / fetal weight + …
[22] = group: maternal, reproductive / reproductive performance / preimplantation loss / preimplantation loss + systemic / in life observation / body weight / body …
[23] = group: offspring, systemic / in life observation / body weight / offspring (pup) weight
[24] = group: parental, systemic / organ weight / kidney / absolute + systemic / organ weight / kidney / relative to body weight + systemic / pathology microscopic…
[25] = systemic / hematology / erythrocyte (rbc) count differential / erythrocyte (rbc) + systemic / hematology / hematocrit (hct) / hematocrit (…
[26] = systemic / pathology microscopic / mammary gland / fibroadenoma
[27] = systemic / in life observation / body weight / body weight + systemic / organ weight / spleen / absolute
[28] = systemic / in life observation / food consumption / food consumption + reproductive / offspring survival early / litter size / litter size…
[29] = systemic / in life observation / food consumption / food consumption + systemic / in life observation / body weight / body weight gain
[30] = systemic / in life observation / body weight / body weight gain + systemic / organ weight / uterus / absolute + systemic / organ weight / …
[31] = systemic / organ weight / kidney / absolute + systemic / organ weight / kidney / relative to body weight + systemic / pathology microscopic…
[32] = systemic / urinalysis / sediment microscopic / crystalluria + systemic / urinalysis / ph / ph
[33] = systemic / in life observation / body weight / body weight gain + systemic / in life observation / body weight / body weight + systemic / …

CCCN(CCC)c1c([N+](=O)[O-])cc(S(N)(=O)=O)cc1[N+](=O)[O-] [Oryzalin] was tested, and the LEL ([1]; systemic / clinical chemistry / creatinine / creatinine + systemic / clinical chemistry / urea nitrogen / urea nitrogen) was 193 mg/kg/day, the NEL ([1]; systemic / clinical chemistry / creatinine / creatinine + systemic / clinical chemistry / urea nitrogen / urea nitrogen + systemic / …) was 71 mg/kg/day and the LOAEL [1, 17] was over 521 mg/kg/day. The NOAEL [1, 17] was at least 521 mg/kg/day, the LOAEL [2, 18] was 287 mg/kg/day and the NOAEL [2, 18] was 104 mg/kg/day. The LEL [2, 19] was 112 mg/kg/day, the NEL ([2]; systemic / organ weight / uterus / absolute + systemic / clinical chemistry / glucose / glucose + systemic / hematology / hematocrit (hct…) was 42.2 mg/kg/day and the LEL [3, 20] was 225 mg/kg/day. For the same compound, the LOAEL [3, 20] was 225 mg/kg/day, the NEL [3, 21] was 50 mg/kg/day and the NOAEL [3, 21] was 50 mg/kg/day. For the same compound, the LEL [3, 22] was 225 mg/kg/day, the LOAEL [3, 22] was 225 mg/kg/day and the NEL [3, 22] was 50 mg/kg/day. It also gave an NOAEL [3, 22] of 50 mg/kg/day, an LEL [4, 23] of 179 mg/kg/day and an LOAEL [4, 23] of 179 mg/kg/day. For the same compound, the NEL [4, 23] was 58.7 mg/kg/day, the NOAEL [4, 23] was 58.7 mg/kg/day and the LOAEL [4, 24] was 19.4 mg/kg/day. For the same compound, the NOAEL [4, 24] was under 19.4 mg/kg/day, the LOAEL [5, 25] was 42.9 mg/kg/day and the NOAEL [5, 25] was 13.8 mg/kg/day. The LEL [5, 26] was 13.8 mg/kg/day, the NEL [5, 26] was under 13.8 mg/kg/day and the LOAEL ([6]; systemic / in life observation / body weight / body weight) was 1140 mg/kg/day. For the same compound, the LEL [6, 27] was 1140 mg/kg/day, the NEL [6, 27] was 521 mg/kg/day and the NOAEL [6, 27] was 521 mg/kg/day. For the same compound, the LEL [7, 28] was 55 mg/kg/day, the LOAEL [7, 28] was 55 mg/kg/day and the NEL [7, 29] was 25 mg/kg/day. It also gave an NOAEL [7, 29] of 25 mg/kg/day, an LOAEL [8, 18] of 521 mg/kg/day and an NEL [8, 30] of 71 mg/kg/day. It also gave an NOAEL [8, 30] of 193 mg/kg/day, an LEL [8, 19] of 193 mg/kg/day and an LEL [9] of 1430 mg/kg/day. The LOAEL [9] was over 1430 mg/kg/day, the NEL [9] was under 1430 mg/kg/day and the NOAEL [9] was at least 1430 mg/kg/day. The LOAEL [10, 31] was 45.9 mg/kg/day, the NOAEL [10, 31] was 4.56 mg/kg/day and the LEL [10, 32] was 4.56 mg/kg/day. For the same compound, the NEL [10, 32] was under 4.56 mg/kg/day, the LEL [11] was 1.5 mg/kg/day and the LOAEL [11] was 15 mg/kg/day. For the same compound, the NEL [11] was under 1.5 mg/kg/day and the NOAEL [11] was 5 mg/kg/day.

COC(=O)c1ccccc1S(=O)(=O)NC(=O)Nc1nc(OC(F)F)cc(OC(F)F)n1 [Primisulfuron-methyl] was tested, and the LEL [12, 18] was 127 mg/kg/day, the LOAEL [12, 18] was 127 mg/kg/day and the NEL [12, 33] was 12.4 mg/kg/day. For the same compound, the NOAEL [12, 33] was 12.4 mg/kg/day, the LEL [13] was 150 mg/kg/day and the LOAEL [13] was 150 mg/kg/day. It also gave an NEL [13] of 15 mg/kg/day, an NOAEL [13] of 15 mg/kg/day and an LEL [14] of 250 mg/kg/day. For the same compound, the LOAEL [14] was 250 mg/kg/day, the NEL [14] was 25 mg/kg/day and the NOAEL [14] was 25 mg/kg/day. The LEL [15] was 125 mg/kg/day, the LOAEL [15] was 125 mg/kg/day and the NEL [15] was 25 mg/kg/day. For the same compound, the NOAEL [15] was 25 mg/kg/day, the LEL [16] was 408 mg/kg/day and the LOAEL [16] was 408 mg/kg/day. For the same compound, the NEL [16] was 40.2 mg/kg/day and the NOAEL [16] was 40.2 mg/kg/day.
